In PubChem BioAssay AID1963973 (Molecular Pharmacology Branch, DTP, NCI, 2024):
Values belong to the compound of their own block, whether it stands above or below them.

Test system: 883617-216-R-J1-PDC tumor spheroids, viability
Assay: Anticancer human tumor 883617-216-R-J1-PDC patient-derived bladder carcinoma cell line growth inhibition [PI3K]
Settings: spheroids with HUVEC and MSC; for IC50: curve of first compound; for viability, T/C: stronger effect = lower value
In short: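 Three cell types, namely tumor cells, endothelial cells and mesenchymal stem cells, formed each spheroid. Combinations with four PI3K inhibitors were screened at clinically achievable concentrations decreasing by half-log, and spheroid viability was recorded.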

[1] = second compound 0.00316 µM, first compound 0.0316 µM
[2] = second compound 0.00316 µM, first compound 0.1 µM
[3] = second compound 0.00316 µM, first compound 0.316 µM
[4] = second compound 0.00316 µM, first compound 1 µM
[5] = second compound 0.00316 µM, first compound 3.16 µM
[6] = second compound 0.00316 µM, first compound 10 µM
[7] = second compound 0.01 µM, first compound 0.0316 µM
[8] = second compound 0.01 µM, first compound 0.1 µM
[9] = second compound 0.01 µM, first compound 0.316 µM
[10] = second compound 0.01 µM, first compound 1 µM
[11] = second compound 0.01 µM, first compound 3.16 µM
[12] = second compound 0.01 µM, first compound 10 µM
[13] = second compound 0.0316 µM, first compound 0.0316 µM
[14] = second compound 0.0316 µM, first compound 0.1 µM
[15] = second compound 0.0316 µM, first compound 0.316 µM
[16] = second compound 0.0316 µM, first compound 1 µM
[17] = second compound 0.0316 µM, first compound 3.16 µM
[18] = second compound 0.0316 µM, first compound 10 µM
[19] = second compound 0.1 µM, first compound 0.0316 µM
[20] = second compound 0.1 µM, first compound 0.1 µM
[21] = second compound 0.1 µM, first compound 0.316 µM
[22] = second compound 0.1 µM, first compound 1 µM
[23] = second compound 0.1 µM, first compound 3.16 µM
[24] = second compound 0.1 µM, first compound 10 µM
[25] = second compound 0.316 µM, first compound 0.0316 µM
[26] = second compound 0.316 µM, first compound 0.1 µM
[27] = second compound 0.316 µM, first compound 0.316 µM
[28] = second compound 0.316 µM, first compound 1 µM
[29] = second compound 0.316 µM, first compound 3.16 µM
[30] = second compound 0.316 µM, first compound 10 µM
[31] = second compound 1 µM, first compound 0.0316 µM
[32] = second compound 1 µM, first compound 0.1 µM
[33] = second compound 1 µM, first compound 0.316 µM
[34] = second compound 1 µM, first compound 1 µM
[35] = second compound 1 µM, first compound 3.16 µM
[36] = second compound 1 µM, first compound 10 µM
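Also: spheroids exposed to agents for 7 days before the viability read.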

IC50 (second compound 0.00316 µM): > 10 µM
IC50 (second compound 0.01 µM): > 10 µM
IC50 (second compound 0.0316 µM): 6.34 µM
IC50 (second compound 0.1 µM): 0.366 µM
IC50 (second compound 0.316 µM): < 0.0316 µM
IC50 (second compound 1 µM): < 0.0316 µM
SMILES: C[C@@H](NC(=O)c1ncnc(N)c1Cl)c1ncc(C(=O)Nc2cc(C(F)(F)F)c(Cl)cn2)s1 + CC(Nc1ccc2c(c1)OCCn1cc(N3C(=O)OCC3C(F)F)nc1-2)C(N)=O
viability, T/C [1]: 86.3%
viability, T/C [2]: 78.3%
viability, T/C [3]: 88.9%
viability, T/C [4]: 99.8%
viability, T/C [5]: 80%
viability, T/C [6]: 70.8%
viability, T/C [7]: 81.2%
viability, T/C [8]: 89.4%
viability, T/C [9]: 74.6%
viability, T/C [10]: 86.2%
viability, T/C [11]: 70.6%
viability, T/C [12]: 63.6%
viability, T/C [13]: 72.2%
viability, T/C [14]: 73.6%
viability, T/C [15]: 65.3%
viability, T/C [16]: 58.8%
viability, T/C [17]: 55.4%
viability, T/C [18]: 47.1%
viability, T/C [19]: 42.4%
viability, T/C [20]: 49.2%
viability, T/C [21]: 61.8%
viability, T/C [22]: 42.3%
viability, T/C [23]: 36.7%
viability, T/C [24]: 32.3%
viability, T/C [25]: 26.1%
viability, T/C [26]: 22.4%
viability, T/C [27]: 26.1%
viability, T/C [28]: 27.4%
viability, T/C [29]: 27.7%
viability, T/C [30]: 17.9%
viability, T/C [31]: 18.2%
viability, T/C [32]: 15.2%
viability, T/C [33]: 16.3%
viability, T/C [34]: 16.9%
viability, T/C [35]: 16.6%
viability, T/C [36]: 12.5%

IC50 (second compound 0.00316 µM): 4.59 µM
IC50 (second compound 0.01 µM): 4.71 µM
IC50 (second compound 0.0316 µM): 4.24 µM
IC50 (second compound 0.1 µM): < 0.0316 µM
IC50 (second compound 0.316 µM): < 0.0316 µM
IC50 (second compound 1 µM): < 0.0316 µM
SMILES: CCCS(=O)(=O)Nc1ccc(F)c(C(=O)c2c[nH]c3ncc(-c4ccc(Cl)cc4)cc23)c1F + CC(Nc1ccc2c(c1)OCCn1cc(N3C(=O)OCC3C(F)F)nc1-2)C(N)=O
viability, T/C [1]: 91.2%
viability, T/C [2]: 90.9%
viability, T/C [3]: 89%
viability, T/C [4]: 100%
viability, T/C [5]: 70.2%
viability, T/C [6]: 8.07%
viability, T/C [7]: 87.3%
viability, T/C [8]: 90%
viability, T/C [9]: 89.5%
viability, T/C [10]: 93.9%
viability, T/C [11]: 70.3%
viability, T/C [12]: 11.9%
viability, T/C [13]: 68.5%
viability, T/C [14]: 64.3%
viability, T/C [15]: 64.4%
viability, T/C [16]: 66.8%
viability, T/C [17]: 63.7%
viability, T/C [18]: 9.98%
viability, T/C [19]: 36.1%
viability, T/C [20]: 42.6%
viability, T/C [21]: 43.9%
viability, T/C [22]: 48.2%
viability, T/C [23]: 38.7%
viability, T/C [24]: 12.2%
viability, T/C [25]: 29%
viability, T/C [26]: 23.8%
viability, T/C [27]: 28.5%
viability, T/C [28]: 28.2%
viability, T/C [29]: 26.6%
viability, T/C [30]: 11%
viability, T/C [31]: 15.2%
viability, T/C [32]: 15%
viability, T/C [33]: 17%
viability, T/C [34]: 23%
viability, T/C [35]: 20.7%
viability, T/C [36]: 8.33%
